Series [1] has as its system porcine pancreatic lipase. The series is described as follows: Lipase assay: resistance to hydrolysis by porcine pancreatic lipase. In kind it is in vitro ADME. The note with it: pig, pH 8. On the procedure: The polyglycerols in Examples III, IV, V, VI, VII, X, XI were subjected to digestion by porcine pancreatic lipase to test for resistance to hydrolysis. This test is an indicator of resistance to digestion within a mammalian digestive system.
Lipase Assay--The following materials and procedure were employed:
0.05M Tris-HCl buffered at pH=8.0 at 37° C.
60 mg porcine pancreatic lipase (Sigma Cat. No. L3126) to 5.0 ml of the above L-histidine solution.
Olive oil is used as a standard in these assays. The olive oil is from Sigma, cataloque number 01500.
1. Weigh 0.2000 grams of standard or sample into each of three 125 ml Erlenmeyer flasks.
2. To each flask add 8.0 ml of Salts solution, and 1.0 ml of the 0.05M Tris-HCl solution. Stopper each flask and place them in a shaker water bath equilibrated to 37° C. Commence agitation at 250 rpm. A New Brunswick shaker water bath was used throughout this study.
3. After the samples have equilibrated to temperature, 15-20 minutes, add 1.0 ml of enzyme to each of two flasks and 1.0 ml of histidine solution to the third flask as a blank. Stagger the addition to each flask by at least 30 seconds. The third flask in each set is the sample blank, which accounts for any free acids in the sample. Reactions should run both for 1 hour and 18 hours.
4. When reaction time has expired, add 50 ml of isopropanol to each flask. Prior to titration with 0.05-0.10N KOH in methanol, add a few drops of 1% phenolphthalein in ethanol to each flask. The exact concentration of .the potassium hydroxide solution should be standardized using KHP, potassium hydrogen phthalate. Titrate each flask to the pink endpoint and record the amount of base required to neutralize the sample. If solubility is a problem, warm sample slightly in a water bath prior to titration.
5. For olive oil, the % hydrolysis for each sample will be the mmoles KOH divided by the mmoles fatty acids available×(times) 100. An average molecular weight for olive oil of 880 g/mole can be used The corrected % hydrolysis is the % hydrolysis for the lipase-treated sample minus the % hydrolysis for the blank. For more heterogeneous samples (complex esters), the % hydrolysis can be calculated as the (AV/SAP Value)×100. The AV for each sample is (mmole KOH sample--mmole KOH blank) (56 mg KOH/mmole)/sample weight in grams. The saponification value can be determined using a method such as A.O.C.S. Official Method Cd 3-25. It is defined as the mg KOH required to saponify a gram of sample. The % hydrolysis can then be determined by taking a ratio of the measured AV after lipase treatment/SAP VALUE 100.

The conditions of series [2]: rat, in vivo.
For series [3] the following is noted: in vivo; cited from earlier work.

For Polyglycerol polyoleate [Example VII], in series [1], the “Percent Hydrolysis 1 hr.” value is recorded as 4.2% and the “Percent Hydrolysis 18 hrs.” value came out at 7.8%. Also, the “% Digested in Rats” value in series [2] was 70%.

For Polyglycerol polyoleate [Example XI], in series [1], the “Percent Hydrolysis 1 hr.” value came to 0.5% and the “Percent Hydrolysis 18 hrs.” value amounted to 5.3%. Also, in series [2], the “% Digested in Rats” value is 50%.

Regarding “Propoxylated polyglycerol polyoleate [Example IV]”, in series [1], the “Percent Hydrolysis 1 hr.” value amounted to 2.7% and the “Percent Hydrolysis 18 hrs.” value is 2.3%. Besides, in series [2], the “% Digested in Rats” value came out at 26%.

Regarding “Propoxylated polyglycerol polytallowate [Example V]”, in series [1], the “Percent Hydrolysis 1 hr.” value is recorded as 2.4% and the “Percent Hydrolysis 18 hrs.” value was found to be 3.8%. Also, the “% Digested in Rats” value in series [2] is listed as 18%.

Regarding decaglycerol dodecaoleate, in series [3], the “absorption / hydrolysis and metabolism in rat feeding studies” value was “substantially absorbed”.

As for polyglycerol polyoleate [Example III], in series [1], the “Percent Hydrolysis 1 hr.” value was 2.7% and the “Percent Hydrolysis 18 hrs.” value came to 4.4%. Also, the “% Digested in Rats” value in series [2] is recorded as 52%.

The values are drawn from patent US5399371A, “Low calorie substitute for an edible oil” (Henkel Corporation, priority 1993, dated 1995).
